Measurements taken from patent US11096940B2, “Treatment of hepatocellular carcinoma characterized by hepatitis B virus infection” (Celgene Corporation, priority 2017, dated 2021).
Entries after “also recorded” stand apart in the source; their conditions may differ.

What was measured:
Assay type in all cases: in vivo, human
[1] = system: subjects with various hematologic or solid malignancies; test: Phase 1/2 clinical study Part A, dose escalation (MTD determination); details: oral
Protocol: The study was designed as a Phase 1/2 trial consisting of two parts: dose escalation (Part A) and dose expansion (Part B).
Part A was an open-label, dose-escalating study of subjects with various hematologic or solid malignancies. The primary objectives were to determine the maximum tolerated dose (MTD) and the preliminary PK of Compound 1. The MTD of Compound 1 was determined to be 45 mg/day, and the nontolerated dose (NTD) was determined to be 60 mg/day. The PK and PD data supported once daily dosing with Compound 1.

subjects with HCC = test: Phase 1/2 clinical study Part B, dose expansion: efficacy (RECIST response, OS, PFS) in HCC subjects
Description: Part B, the preliminary efficacy-seeking phase, was an open-label, dose-expansion study, which involved subjects with HCC.
(§1) Subjects received continuous daily dosing of Compound 1 in 28-day cycles (FIG. 1). Therapy was discontinued if there was evidence of disease progression, but subjects continued to receive Compound 1 as long as the investigator considered that the subjects derived benefit from treatment. Therapy was discontinued if there was unacceptable toxicity or if the subject decided to withdraw from the study. Subjects were contacted 28 days after the last dose of study drug to assess the status of adverse events (AEs) and to determine whether any new events or death had occurred. In addition to those subjects who had died on study, approximately 28 subjects were consented for follow-up every 2 months (±1 week) after completing the treatment phase in order to determine their date of death and complete an overall survival analysis.
Accordingly to the original protocol of Part B, 25 HCC patients started treatment of Compound 1 at 45 mg/day. After the protocol Amendment 9, 28 new HCC subjects in an additional cohort were started at 30 mg/day. The appropriateness of the 30 mg/day dose was supported by the PK and PD data from Part A. Compound 1 was administered orally, in an uninterrupted once daily schedule with no rest period between each 28-day cycle. Subjects continued to receive Compound 1 for as long as they derived benefit from treatment as judged by the investigator.
All efficacy analyses were based on both the TP and EE Population. Subjects were evaluated for efficacy during Cycles 2, 4, 6, and every 3 months after Cycle 6. The primary efficacy variable was response rate. Efficacy endpoints for HCC matured once all enrolled subjects had withdrawn from the study.
Tumor response for HCC was based on investigator's overall evaluation with RECIST. Response rate was determined by a best overall response of either CR or PR. Disease control rate (DCR) included CR, PR, and SD.
OS was defined as the time from first dose to death. All deaths, regardless of the cause of death, were included. Subjects who had not died were censored at the last contact date when the subject was known to be alive or the clinical cut-off date, whichever was earlier.
Median of OS times were calculated using the Kaplan-Meier method and the corresponding 95% CIs were presented.

[2] = PK analysis: plasma concentration in HCC patients by HBV status; details: after oral Compound 1, first treatment cycle; FIGS. 3A, 3B
Protocol: The PK profiles of Compound 1 and its metabolite M1 were determined from serial blood and urine collections during the first treatment cycle. Plasma and urine Compound 1 and M1 were measured using validated chiral liquid chromatography-mass spectrometry methods. The lower limit of quantification (LLOQ) in plasma was 1.00 or 2.00 ng/mL for Compound 1 and 10.0 ng/mL for M1. The LLOQ in urine was 5.00 ng/mL for Compound 1 and 20 ng/mL for M1. […]

alpha-fetoprotein (AFP) = test: Assessment of AFP in HCC patients; details: two HBV positive HCC patients with PR (FIG. 10)
Protocol: For the HCC subjects, baseline and change from baseline in AFP and HBV viral load (HBsAg positive subjects only) were summarized with descriptive statistics. In addition, a Wilcoxon's signed rank test was conducted to analyze change from baseline in AFP at selected scheduled visits. The p-values of such tests were provided. Change from baseline in HBV viral load was analyzed similarly. The percentage of subjects with a >50% decline from baseline in AFP was summarized for the TP.

[3] = Phase 1/2 clinical study Part B: safety and tolerability in HCC subjects; details: subjects with HCC
Description: The primary objectives for Part B were (a) to determine the safety and tolerability of Compound 1 when administered orally and (b) to determine the preliminary PK of Compound 1 following both single and multiple oral dosing of Compound 1.
as §1

CO[C@H]1CC[C@H](N2C(=O)CNc3ncc(-c4ccc(C(C)(C)O)nc4)nc32)CC1 [Compound 1, 7-(6-(2-hydroxypropan-2-yl)pyridin-3-yl)-1-((trans)-4-methoxycyclohexyl)-3,4-dihydropyrazino[2,3-b]pyrazin-2(1H)-one]
maximum tolerated dose (MTD) [1]: 45 mg/day | nontolerated dose (NTD) [1]: 60 mg/day | DCR (subjects with HCC; EE Population): 68.3% | ORR (subjects with HCC; EE Population): 7.3% | rate of tumor regression relative to pretreatment (subjects with HCC; EE Population): 56.1% | median OS (subjects with HCC; HBV infected HCC patients): 12.07 months | ORR (subjects with HCC; HBV negative subgroups): 0% | disease control rate (DCR) (subjects with HCC; HBV negative subjects): 43.9% | median OS (subjects with HCC; HBV negative subjects): 22.4 weeks | median PFS (subjects with HCC; HBV negative subjects): 14.4 weeks | target tumor shrinkage rate (subjects with HCC; HBV negative subjects): 39.0% | ORR (subjects with HCC; HBV positive subjects): 25% | disease control rate (DCR) (subjects with HCC; HBV positive subjects): 91.7% | median OS (subjects with HCC; HBV positive subjects): 52.4 weeks | median PFS (subjects with HCC; HBV positive subjects): 14.8 weeks | target tumor shrinkage rate (subjects with HCC; HBV positive subjects): 66.7% | complete response (CR) (subjects with HCC; HCC TP): No subject experienced a CR | overall response rate (ORR) (subjects with HCC; HCC TP): 5.7% | subjects with best response of SD (subjects with HCC; HCC TP): 49.1% | number of subjects with >30% regression of target tumor lesion (subjects with HCC; HCC cohort, RECIST 1.1 (FIG. 7)): Five | median OS (subjects with HCC; HCC cohort, all patients (FIG. 5A)): 6.9 months | median PFS (subjects with HCC; HCC cohort, all patients (FIG. 6A)): 16 weeks | number of subjects achieving PR (subjects with HCC; HCC cohort, all HBV positive): 3 subjects | median OS (subjects with HCC; TP): 30.0 weeks | median PFS (subjects with HCC; TP): 3.7 months | disease control rate (DCR) (subjects with HCC; all subjects (HCC TP)): 54.7% | rate of target tumor shrinkage (target lesion regression relative to pretreatment) (subjects with HCC; all subjects (HCC TP)): 45.3% | median OS (subjects with HCC; non-HBV infected HCC patients): 5.16 months | median duration of response (DOR) (subjects with HCC; the 3 subjects who reached PR): 124.0 days | median duration of SD (subjects with HCC; the 26 subjects with best response of SD): 112.0 days | radiographic response at first on-treatment restaging compared to baseline (subjects with HCC; two HBV infected HCC patients, Patient A and Patient B (FIG. 9)): regression of intrathoracic metastases; also recorded: intrahepatic tumor regression | plasma exposure in HBV infected HCC patients (n=12) versus non-HBV infected HCC patients (n=39) [2]: comparable to the exposure observed in non-HBV infected HCC patients | AFP on treatment compared to baseline (alpha-fetoprotein (AFP)): early clinically significant, marked reduction of AFP | tolerability [3]: well tolerated
